Source: US20090176817A1, “Method of Treatment of Diarrhea-Predominant Irritable Bowel Syndrome in a Subject” (priority 2005, published 2009)
Read-outs that look alike come from different tables or passages of the source.

Tests used:
clinical [1] = conditions: both, human, in vivo
Protocol: Diurnal variations in cilansetron pharmacokinetics have been evaluated in a randomized, double-blind, placebo-controlled, 2-way crossover study in 9 male and 9 female healthy subjects, aged 21 to 39 years. Subjects were randomized to receive 2 treatments (cilansetron 16 mg tablet and placebo) during the 2 treatment periods. During each treatment period, subjects received a single dose of their assigned treatment on the first day (Day 1), after which they received the same treatment TID for 4 days (Days 2-5). There was a 10-day washout period between treatment periods. Subjects were fasted for at least 2 hours before and following each dose, and heavy physical activity was restricted. Serial blood samples for the measurement of multiple-dose pharmacokinetics of cilansetron were collected up to 24 hours postdose on Day 5.

clinical [2] = conditions: human, in vivo, iv
Protocol: The pharmacokinetics of intravenously administered cilansetron have also been evaluated in several studies. In a randomized, double-blind, placebo controlled, rising dose, crossover study in 24 male subjects, aged 23-37 years, the single-dose pharmacokinetics of IV cilansetron were evaluated over a 4 mg to 16 mg dose range. Subjects received, at intervals of 1 week, single doses of 4, 8, and 16 mg IV cilansetron in ascending order and a randomized placebo. Infusion times ranged from 15-30 minutes. All doses were administered under fasted conditions.
In a randomized, double-blind, placebo controlled, rising dose, crossover study, 24 male subjects (aged 23-37 years) received single doses of 4, 8, and 16 mg IV cilansetron in ascending order and a randomized placebo, infused over 15-30 minutes. All doses were administered under fasted conditions. FIG. 14 and FIG. 15 present box plots of cilansetron AUC(0-inf) and dose-normalized AUC(0-inf) values (normalized to a 1 mg dose), respectively, and Table 2.7.2.3.13 presents descriptive statistics for the results of statistical pairwise comparisons of dose-normalized parameters between doses.

[3] = male, human, in vivo
Protocol: Subjects were treated with a single oral dose of cilansetron 8 mg (tablet) on Day 1, followed by 8 mg TID for 5 days (Days 2-6) and a single 8 mg dose on the morning of Day 7. Young subjects ranged in age from 19-45 years, and elderly from 66-79 years. Serial blood samples were collected up to 24 hours postdose on Days 1 and 7, and cilansetron pharmacokinetic parameters were calculated. Doses on pharmacokinetic sampling days were administered under fasted conditions.
Young subjects ranged in age from 19-45 years, and elderly from 66-79 years. Serial blood samples were collected up to 24 hours postdose on Days 1 and 7, and cilansetron pharmacokinetic parameters were evaluated. Doses on pharmacokinetic sampling days were administered under fasted conditions.

[4] = format: in vitro ADME; conditions: human
Protocol: Protein binding was also evaluated in an in vitro study in human, mouse, rat, and dog plasma using equilibrium dialysis (12-14K molecular weight cut-off membrane). […] This study also measured the binding of (^14C)-cilansetron to purified human serum albumin at cilansetron concentrations ranging from 30-3000 ng/mL and to purified human alpha-1 acid glycoprotein (AAG) at concentrations ranging from 30-10000 ng/mL.

healthy subjects = test: Study S.241.2.104: gastric visceral perception (barostat); format: in vivo, human
Protocol: The effect of cilansetron on gastric perception was evaluated in a randomized, double-blind, placebo-controlled, parallel-group study in 44 male and female healthy subjects (ITT population; 22 subjects received placebo and 22 received 8 mg cilansetron), aged 19-43 years. Subjects received cilansetron 8 mg TID orally for 7 days and gastric distension tests were done at baseline (Day 1, prior to dosing) and poststudy (Day 8). An electronic barostat was used to produce isobarometric distensions (starting from 2 mmHg, progressive distensions in 2 mmHg increments were performed every 2 minutes until gastric pain occurred or an upper limit of 20 rnrnHg was reached) and isovolumetric distensions (starting from an initial volume of 200 mL, progressive distensions in 100 mL increments were performed every 2 minutes until gastric pain occurred or an upper limit of 1100 mL was reached). The primary efficacy parameter was the difference in pain threshold from baseline to poststudy, measured by the amount of distension pressure inducing gastric pain. Secondary parameters were the mean distension pressure/volume inducing the first feelings of gastric sensation and gastric discomfort, and changes in bowel habits over the treatment period. A 2-sample t-test was used to compare baseline-adjusted pain threshold and other secondary efficacy parameters between cilansetron and placebo treatments.

[5] = test system: diarrhea-predominant IBS subjects; test: Study S241.3.009: safety; format: in vivo, human; parameters: Incidence of bilirubin increase: dose or concentration left out as unconfirmed; conditions: for Constipation: human, 26 weeks
Excerpt: The primary efficacy parameter was the overall response rate for IBS symptoms, based on the weekly question concerning adequate relief of IBS symptoms (abdominal pain/discomfort, abnormal bowel habits) over the 26 weeks period. A responder was a subject who responded “yes” at least 50% of the time during his/her treatment period, with minimum treatment duration of four weeks. The two main secondary efficacy parameters were overall responder rate based on the weekly question on adequate relief of abdominal pain/discomfort and abnormal bowel habits during the 26-week treatment period. The onset of action of cilansetron was also examined using daily diary data (stool frequency, and ratings of urgency and severity) during the initial 8 weeks of trial participation. An additional key secondary efficacy parameter was the number of months (one month equals four weeks) up to six months (24-weeks) that a subject was a responder for IBS symptoms, where a responder was defined as a subject who answered the weekly question with “yes” at least twice for that month. The responder rate for the weekly diary questions on adequate relief at each month and all months, the adequate relief rate, the number of subjects with adequate relief by week, daily diary questions, IBS-QOL scores, and the interruption of activities were also assessed. Safety was evaluated by physical examination, ECG, vital signs, laboratory evaluations, concomitant medications, and AEs.

[6] = 8 mg TID oral 7 days, Day 8, arith. mean
[7] = 8 mg TID oral 7 days, arith. mean
[8] = 8 mg TID oral 7 days, baseline-adjusted, 2-sample t-test, significant (p < 0.01)

Protocol for cytochrome P450 enzymes: An in vitro study using human hepatic microsomes evaluated the effect of some enzyme inhibitors on the metabolism of cilansetron (100 μM).

Cc1nccn1C[C@H]1CCc2c(c3cccc4c3n2CCC4)C1=O [Cilansetron, (R)-(−)-4,5,6,8,9,10-hexahydro-10-[(2-methyl-1H-imidazol-1-yl)methyl]-11H-pyrido-[3,2,1-jk]-carbazol-11-one]
Cmax (clinical [1]; Cmax): 76.9 ng/mL
Tmax (clinical [1]; Tmax): 1 h
clearance (clinical [2]): 550 to 800 mL/min
DN-AUC(0-inf) ratio 8 mg/4 mg (clinical [2]; male): 121%
DN-AUC(0-inf) ratio 16 mg/4 mg (clinical [2]; male): 124%
DN-AUC(0-inf) ratio 16 mg/8 mg (clinical [2]; male): 102%
DN-AUC(0-last) ratio 8 mg/4 mg (clinical [2]; male): 123%
DN-AUC(0-last) ratio 16 mg/4 mg (clinical [2]; male): 126%
DN-AUC(0-last) ratio 16 mg/8 mg (clinical [2]; male): 102%
Renal elimination (clinical [2]; male): < 1 % of dose
clearance (clinical [2]; male): 550 to 700 mL/min
half-life (clinical [2]; male): 1.4 to 1.7 h
AUC(0-inf) (clinical [2]; male, 4 mg): 103 ng·h/mL
AUC(0-t) (clinical [2]; male, 4 mg): 100 ng·h/mL
CL renal (clinical [2]; male, 4 mg): 2.95 mL/min
Vd (clinical [2]; male, 4 mg): 99 L
clearance (clinical [2]; male, 4 mg): 680 mL/min
half-life (clinical [2]; male, 4 mg): 1.7 h
AUC(0-inf) (clinical [2]; male, 8 mg): 254 ng·h/mL
AUC(0-t) (clinical [2]; male, 8 mg): 251 ng·h/mL
CL renal (clinical [2]; male, 8 mg): 2.64 mL/min
Vd (clinical [2]; male, 8 mg): 78 L
clearance (clinical [2]; male, 8 mg): 567 mL/min
half-life (clinical [2]; male, 8 mg): 1.62 h
AUC(0-inf) (clinical [2]; male, 16 mg): 525 ng·h/mL
AUC(0-t) (clinical [2]; male, 16 mg): 518 ng·h/mL
CL renal (clinical [2]; male, 16 mg): 2.65 mL/min
Vd (clinical [2]; male, 16 mg): 68 L
clearance (clinical [2]; male, 16 mg): 564 mL/min
half-life (clinical [2]; male, 16 mg): 1.41 h
AUC(0-inf) [3]: 252 (123) ng · h/mL
Protein bound [4]: 93-96%
Mean gastric pain threshold raised vs baseline (healthy subjects; 8 mg TID 7 days): 1.9 mmHg
Pressure first producing gastric discomfort, Poststudy (healthy subjects; [6]): 11.9 mmHg
Pressure first producing gastric pain, Poststudy (healthy subjects; [6]): 15.4 mmHg
Pressure first producing gastric sensation, Poststudy (healthy subjects; [6]): 8.9 mmHg
Volume first producing gastric pain, Poststudy (healthy subjects; [6]): 764 mL
Pressure first producing gastric discomfort, Change from Baseline (healthy subjects; [7]): 0.9 mmHg
Pressure first producing gastric pain, Change from Baseline (healthy subjects; [7]): 1.9 mmHg
Pressure first producing gastric sensation, Change from Baseline (healthy subjects; [7]): 0.9 mmHg
Volume first producing gastric pain, Change from Baseline (healthy subjects; [7]): 77 mL
Volume first producing gastric pain, Difference cilansetron versus placebo (healthy subjects; 8 mg TID oral 7 days, baseline-adjusted, 2-sample t-test): -18 mL
Pressure first producing gastric discomfort, Difference cilansetron versus placebo (healthy subjects; [8]): 2.2 mmHg
Pressure first producing gastric pain, Difference cilansetron versus placebo (healthy subjects; [8]): 2.8 mmHg
Pressure first producing gastric sensation, Difference cilansetron versus placebo (healthy subjects; [8]): 2.1 mmHg
Gastric discomfort threshold raised (healthy subjects; in vivo): 0.9 mmHg
Gastric pain threshold mean increase vs placebo (healthy subjects; in vivo): 2.8 mmHg
Gastric sensation threshold raised (healthy subjects; in vivo): 0.9 mmHg
Mean volume to reach gastric pain threshold raised (healthy subjects; in vivo): 77.3 mL
Gastric discomfort threshold treatment increase (healthy subjects; vs placebo): 2.2 mmHg
Gastric sensation threshold treatment increase (healthy subjects; vs placebo): 2.1 mmHg
Volume difference between treatments (healthy subjects; vs placebo): -18.0 mL
Number of subjects who died ([5]; 2 mg TID, 401 randomized, S241.3.009): 0 n (%)
Constipation ([5]; female, in vivo): 17%
Abdominal pain aggravated ([5]; in vivo): five
Incidence of bilirubin increase ([5]; in vivo): 8%
Rectal hemorrhage ([5]; in vivo): three
Suspected ischemic colitis ([5]; in vivo): three
Constipation ([5]; male, in vivo): 7%
Inhibition of any other cytochrome P450 enzyme activity (cytochrome P450 enzymes): no inhibition
